Our source for the EC50 and Activity values is ChEMBL document CHEMBL1154318, “Bicyclic alpha,omega-dicarboxylic acid derivatives from a colonial tunicate of the family Polyclinidae” (2009).

For assay [1], the system named is A549. The assay can be described thus: Cytotoxicity against human A549 cells after 48 hrs by sulforhodamine B assay. The class given is functional. As to conditions: A549, 48 h, read-out: ED50 (the source's name). On the technique in general: In SRB staining, fixed cells bind dye roughly in proportion to their protein.
The test system of assay [2] is HCT-15. Briefly: Cytotoxicity against human HCT15 cells after 48 hrs by sulforhodamine B assay. The class given is functional. The conditions noted are these: HCT-15, 48 h, read-out: ED50 (the source's name).
The test system of assay [3] is XF498. The assay can be described thus: Cytotoxicity against human XF498 cells after 48 hrs by sulforhodamine B assay. The class given is functional. As to conditions: XF498, 48 h, read-out: ED50 (the source's name).
Assay [4] relates to SK-OV-3. The assay can be described thus: Cytotoxicity against human SKOV3 cells after 48 hrs by sulforhodamine B assay. As to conditions: SK-OV-3, 48 h, read-out: ED50 (the source's name). The class given is functional.
Assay [5] has as its system SK-MEL-2. The assay can be described thus: Cytotoxicity against human SK-MEL-2 cells after 48 hrs by sulforhodamine B assay. The class given is functional. The conditions noted are these: SK-MEL-2, 48 h, read-out: ED50 (the source's name).
In assay [6] the test system is Escherichia coli. The assay can be described thus: Antibacterial activity against […] resistant Escherichia coli DC 2 at 100 ug/ml after 18 hrs by serial dilution. The class given is functional, organism-based.
For assay [7], the system named is Streptococcus pyogenes. The assay can be described thus: Antibacterial activity against […] resistant Streptococcus pyogenes 308A at 100 ug/ml after 18 hrs by serial dilution. The class given is functional, organism-based.
The test system of assay [8] is Streptococcus pyogenes. Briefly: Antibacterial activity against […] resistant Streptococcus pyogenes 77A at 100 ug/ml after 18 hrs by serial dilution. The class given is functional, organism-based.
The subject of assay [9] is Pseudomonas aeruginosa. Briefly: Antibacterial activity against […] resistant Pseudomonas aeruginosa 9027 at 100 ug/ml after 18 hrs by serial dilution. The class given is functional, organism-based.
The subject of assay [10] is Staphylococcus aureus. Briefly: Antibacterial activity against […] resistant Staphylococcus aureus SG 511 at 100 ug/ml after 18 hrs by serial dilution. The class given is functional, organism-based.
For assay [11], the system named is Pseudomonas aeruginosa. The assay can be described thus: Antibacterial activity against […] resistant Pseudomonas aeruginosa 1592E at 100 ug/ml after 18 hrs by serial dilution. The class given is functional, organism-based.
For assay [12], the system named is Escherichia coli. The assay can be described thus: Antibacterial activity against […] resistant Escherichia coli TEM at 100 ug/ml after 18 hrs by serial dilution. The class given is functional, organism-based.
In assay [13] the test system is Staphylococcus aureus. Briefly: Antibacterial activity against methicillin resistant Staphylococcus aureus 285 at 100 ug/ml after 18 hrs by serial dilution. The class given is functional, organism-based.
For assay [14], the system named is RAW264.7. Briefly: Antiinflammatory activity in mouse RAW264.7 cells assessed as inhibition of IL-6 production at 100 ug/ml. The class given is functional, cell-based.
The subject of assay [15] is Salmonella enterica. Briefly: Antibacterial activity against […] resistant Salmonella Typhimurium at 100 ug/ml after 18 hrs by serial dilution. The class given is functional, organism-based. The conditions noted are these: Salmonella enterica subsp. enterica serovar Typhimurium.
The test system of assay [16] is Escherichia coli. The assay can be described thus: Antibacterial activity against […] resistant Escherichia coli DC 0 at 100 ug/ml after 18 hrs by serial dilution. The class given is functional, organism-based.
The test system of assay [17] is Enterobacter cloacae. The assay can be described thus: Antibacterial activity against […] resistant Enterobacter cloacae P 99 at 100 ug/ml after 18 hrs by serial dilution. The class given is functional, organism-based.
Assay [18] relates to RAW264.7. The assay can be described thus: Antiinflammatory activity in mouse RAW264.7 cells assessed as inhibition of TNFalpha production at 100 ug/ml. The class given is functional, cell-based.
The subject of assay [19] is RAW264.7. Briefly: Antiinflammatory activity in mouse RAW264.7 cells assessed as inhibition of NO production at 100 ug/ml. The class given is functional, cell-based.
Assay [20] concerns Staphylococcus aureus. Briefly: Antibacterial activity against methicillin resistant Staphylococcus aureus 503 at 100 ug/ml after 18 hrs by serial dilution. The class given is functional, organism-based.
Assay [21] relates to Pseudomonas aeruginosa. The assay can be described thus: Antibacterial activity against […] resistant Pseudomonas aeruginosa 1771M at 100 ug/ml after 18 hrs by serial dilution. The class given is functional, organism-based.
Assay [22] has as its system Enterococcus faecium. Briefly: Antibacterial activity against […] resistant Streptococcus faecium MD 8b at 100 ug/ml after 18 hrs by serial dilution. The class given is functional, organism-based.
Assay [23] deals with Enterobacter cloacae. The assay can be described thus: Antibacterial activity against […] resistant Enterobacter cloacae 1321E at 100 ug/ml after 18 hrs by serial dilution. The class given is functional, organism-based.
Assay [24] concerns Pseudomonas aeruginosa. Briefly: Antibacterial activity against […] resistant Pseudomonas aeruginosa 1771 at 100 ug/ml after 18 hrs by serial dilution. The class given is functional, organism-based.
Assay [25] concerns Klebsiella aerogenes. The assay can be described thus: Antibacterial activity against […] resistant Klebsiella aerogenes 1522E at 100 ug/ml after 18 hrs by serial dilution. The class given is functional, organism-based.
Assay [26] deals with Escherichia coli. The assay can be described thus: Antibacterial activity against […] resistant Escherichia coli 078 at 100 ug/ml after 18 hrs by serial dilution. The class given is functional, organism-based.
Assay [27] has as its system Escherichia coli. Briefly: Antibacterial activity against […] resistant Escherichia coli 1507E at 100 ug/ml after 18 hrs by serial dilution. The class given is functional, organism-based.
Assay [28] relates to Klebsiella oxytoca. Briefly: Antibacterial activity against […] resistant Klebsiella oxytoca 1082E at 100 ug/ml after 18 hrs by serial dilution. The class given is functional, organism-based.

Molecules are shown by their SMILES. ≈ marks a conversion by molar mass, not a printed value. Calls of active or inactive are those of the source. The rule behind the calls is not given here.

As for `O=C(O)CCC/C=C/C=C/[C@@H]1C=C[C@@H]2CCC[C@H]2[C@H]1/C=C/C=C/C(=O)NCCc1ccccc1` [APLIDIC ACID B], the EC50 in [1] was 28.4 µg/mL (≈ 61.8 µM); in assay [2], 13.5 µg/mL (≈ 29.4 µM); in [3], 21.6 µg/mL (≈ 47 µM); in [4] it was 13.5 µg/mL (≈ 29.4 µM); in assay [5], 11.4 µg/mL (≈ 24.8 µM).

For `O=C(O)CCC/C=C/[C@@H]1C=C[C@@H]2CCC[C@H]2[C@H]1/C=C/C=C/C(=O)NCCc1ccccc1` [APLIDIC ACID C], the EC50 in assay [1] was 12.3 µg/mL (≈ 28.4 µM); in [2] it was 12 µg/mL (≈ 27.7 µM); in assay [3] it was 14 µg/mL (≈ 32.3 µM); in assay [4], 14.7 µg/mL (≈ 33.9 µM); in assay [5], 14.5 µg/mL (≈ 33.4 µM).

As for `COC(=O)/C=C/C=C/[C@@H]1[C@@H]2CCC[C@H]2C=C[C@H]1/C=C/C=C/CCCC(=O)O` [APLIDIC ACID A], the outcome in [6], in assay [7], in [8], in assay [9], in assay [10] and in [11] was inactive. For the same compound, the result in assay [12], in assay [13], in [14], in assay [15], in assay [16] and in assay [17] was inactive. Besides, the outcome in assay [18], in assay [19], in assay [20], in [21], in assay [22] and in [23] was inactive. Moreover, the outcome in [24], in assay [25], in assay [26], in assay [27] and in assay [28] was inactive. The EC50 in assay [1] was found to be 25.2 µg/mL (≈ 68 µM); in assay [2], 12.4 µg/mL (≈ 33.5 µM); in assay [3], 19.5 µg/mL (≈ 52.6 µM); in assay [4] it was 15.2 µg/mL (≈ 41 µM); in assay [5], 11.6 µg/mL (≈ 31.3 µM).

In the case of `COC(=O)/C=C/C=C/[C@@H]1[C@@H]2CCC[C@H]2C=C[C@H]1/C=C/C=C/CCCC(=O)NCCC(=O)NCCc1c[nH]c2ccccc12` [APLIDIC ACID AMIDE A], the EC50 in [1] is 17.5 µg/mL (≈ 30 µM); in assay [2], 13.5 µg/mL (≈ 23.1 µM); in [3], 15.6 µg/mL (≈ 26.7 µM); in [4], 17.2 µg/mL (≈ 29.5 µM); in assay [5], 11.7 µg/mL (≈ 20 µM).

For `COc1cccc2c1C(=O)c1c(O)c3c(c(O)c1C2=O)C[C@@](O)(C(=O)CO)C[C@@H]3O[C@H]1C[C@H](N)[C@H](O)[C@H](C)O1` [DOXORUBICIN], the EC50 in assay [1] is 0.001 µg/mL (≈ 0.00184 µM); in assay [2], 0.071 µg/mL (≈ 0.131 µM); in assay [3] it was 0.029 µg/mL (≈ 0.0534 µM); in assay [4], 0.003 µg/mL (≈ 0.00552 µM); in assay [5], 0.001 µg/mL (≈ 0.00184 µM).
